pIC50: −log10 of the molar value. In brackets after ≈: the same amount, converted by molar mass.
What was measured:
Cathepsin L2 = biological target: T1, Cathepsin L2 (Homo sapiens, UniProt O60911); assay: Inhibition of 2 µM Cbz-Phe-Arg-AMC binding to human cathepsin V activity in fluorescence assay with 100 mM NaOAc
T1 sequence (O60911 whole entry): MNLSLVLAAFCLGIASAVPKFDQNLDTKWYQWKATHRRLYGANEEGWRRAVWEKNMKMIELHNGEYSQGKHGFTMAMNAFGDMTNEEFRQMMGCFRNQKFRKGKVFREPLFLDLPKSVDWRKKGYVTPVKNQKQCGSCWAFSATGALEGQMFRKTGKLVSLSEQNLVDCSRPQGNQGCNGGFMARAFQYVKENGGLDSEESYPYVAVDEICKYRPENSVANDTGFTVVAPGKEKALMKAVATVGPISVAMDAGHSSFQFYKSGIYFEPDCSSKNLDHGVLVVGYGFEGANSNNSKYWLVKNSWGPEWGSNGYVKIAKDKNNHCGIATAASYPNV

[1] = Steady-state volume of distribution of compound was determined after i.v. administration; assay type: ADME, organism-based; details: rat, in vivo, iv; for Vd: read-out: VSS
[2] = Terminal half-life dosed as a solution in male Han Wistar rat administered i.v.; assay type: ADME, organism-based; details: in vivo, iv; for half-life: male, Han Wistar
[3] = Oral bioavailability (i.v. administration); assay type: ADME, organism-based; details: rat, in vivo
Cathepsin B = Cathepsin B (Homo sapiens, UniProt P07858); assay: Inhibition of 10 µM Cbz-Phe-Arg-AMC binding to human cathepsin B activity in fluorescence assay with 100 mM NaOAc
[4] = The total clearance after i.v. administration; assay type: ADME, organism-based; details: rat, in vivo, iv
Procathepsin L = Procathepsin L (Homo sapiens, UniProt P07711); assay: Inhibition of 5 µM Cbz-Phe-Arg-AMC bindign to human cathepsin L activity in fluorescence assay with 100 mM NaOAc
Chain of Procathepsin L (P07711 whole entry): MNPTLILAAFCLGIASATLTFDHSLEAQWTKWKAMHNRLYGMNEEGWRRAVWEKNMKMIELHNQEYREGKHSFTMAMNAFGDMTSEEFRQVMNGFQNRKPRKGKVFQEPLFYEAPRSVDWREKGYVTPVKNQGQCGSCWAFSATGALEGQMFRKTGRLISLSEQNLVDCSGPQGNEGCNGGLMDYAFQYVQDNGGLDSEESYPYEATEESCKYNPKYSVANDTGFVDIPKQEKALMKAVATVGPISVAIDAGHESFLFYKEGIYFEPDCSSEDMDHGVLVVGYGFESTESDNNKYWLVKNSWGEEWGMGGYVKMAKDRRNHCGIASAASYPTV

Cathepsin S = Cathepsin S (Homo sapiens, UniProt P25774); assay: Inhibition of 10 µM Cbz-Val-Val-Arg-AMC binding to human cathepsin S in fluorescence assay with 100 mM NaOAc
Chain of Cathepsin S (P25774 whole entry): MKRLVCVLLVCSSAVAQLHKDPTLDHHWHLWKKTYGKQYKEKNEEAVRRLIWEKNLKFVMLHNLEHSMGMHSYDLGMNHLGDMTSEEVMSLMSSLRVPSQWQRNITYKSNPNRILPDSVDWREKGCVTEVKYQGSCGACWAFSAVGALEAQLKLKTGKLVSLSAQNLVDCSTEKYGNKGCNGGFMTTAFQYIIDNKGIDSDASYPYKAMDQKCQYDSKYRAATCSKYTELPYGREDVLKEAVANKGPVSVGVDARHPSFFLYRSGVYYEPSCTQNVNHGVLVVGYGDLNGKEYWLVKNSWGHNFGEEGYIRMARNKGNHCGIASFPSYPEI

[5] = The equilibrium solubility exhibited in a fasted state-simulated intestinal fluid at pH 6.8; assay type: ADME; details: human
Cathepsin K = biological target: T2, Cathepsin K (Homo sapiens, UniProt P43235); assay: Inhibition of 10 µM Cbz-Phe-Arg-AMC binding to human cathepsin K in fluorescence assay with 100 mM NaOAc
T2 sequence (P43235 whole entry): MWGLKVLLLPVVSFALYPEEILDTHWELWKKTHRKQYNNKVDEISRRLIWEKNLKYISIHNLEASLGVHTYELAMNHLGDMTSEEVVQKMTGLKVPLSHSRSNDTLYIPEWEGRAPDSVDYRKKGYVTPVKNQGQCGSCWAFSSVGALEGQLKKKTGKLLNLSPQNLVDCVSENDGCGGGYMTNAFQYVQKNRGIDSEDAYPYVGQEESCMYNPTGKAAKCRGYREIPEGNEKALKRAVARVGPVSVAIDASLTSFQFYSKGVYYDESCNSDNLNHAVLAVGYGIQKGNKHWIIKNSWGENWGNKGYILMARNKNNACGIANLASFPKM

SMILES | pIC50 (Cathepsin L2) | Vd [1] | half-life [2] | bioavailability [3] | pIC50 (Cathepsin B) | clearance [4] | pIC50 (Procathepsin L) | pIC50 (Cathepsin S) | solubility thermodynamic ([5]; read-out: FS-SIF) | pIC50 (Cathepsin K) | VSS [1] | T1/2 [2] | CL [4] | solubility thermodynamic [5]
CCCC[C@H](NC(=O)O[C@H](Cc1nnc(-c2ccc(C(F)(F)F)cc2)o1)C(C)(C)C)C(=O)C(=O)NN1CCOC1=O | 5.15 | 3.1 L/kg | 6.83 h | 79% | 5.28 | 11 mL/min/kg | 3.80 | 5.92 | 170 µg/mL (≈ 291 µM) |  |  |  |  | 
CCCC[C@H](NC(=O)O[C@H](Cc1nnc(-c2ccccc2)o1)C(C)C)C(=O)C(=O)N[C@H](C)c1ccccc1 | 5.25 |  |  |  | 4.51 |  | 4.77 | 5.43 |  | 9.08 |  |  |  | 
CCCC[C@H](NC(=O)O[C@H](Cc1nnc(-c2ccc(F)cc2)o1)C(C)(C)C)C(=O)C(=O)Nc1ccn[nH]1 | 3.64 | 3.6 L/kg | 2.5 h | 88% | 2.46 | 33 mL/min/kg | 2.42 | 3.96 | 58 µg/mL (≈ 113 µM) | 8.31 |  |  |  | 
CCCC[C@H](NC(=O)O[C@H](Cc1nnc(-c2ccc(C(F)(F)F)cc2)o1)C(C)(C)C)C(=O)C(=O)N[C@H](C)c1ccccc1 | 5.30 |  |  |  | 4.49 |  | 3.72 | 5.80 |  |  |  |  |  | 
CCCC[C@H](NC(=O)O[C@H](Cn1ccc(-c2ccc(C(F)(F)F)cc2)n1)C(C)(C)C)C(=O)C(=O)NCc1ccno1 | 4.44 | 1.7 L/kg | 6.67 h | 40% | 3.06 | 3.2 mL/min/kg | 3.00 | 4.72 |  | 8.24 |  |  |  | 180 µg/mL (≈ 312 µM)
CCCC[C@H](NC(=O)O[C@H](Cc1nnc(-c2ccc(F)cc2)o1)C(C)(C)C)C(=O)C(=O)NCc1cccnc1 | 4.85 | 1.4 L/kg | 3.83 h | 46% | 4.74 | 11 mL/min/kg | 3.89 | 5.57 | 490 µg/mL (≈ 908 µM) |  |  |  |  | 
CCCC[C@H](NC(=O)O[C@H](Cn1cnc(-c2ccc(C(F)(F)F)cc2)c1)C(C)(C)C)C(=O)C(=O)Nc1nccs1 | 4.44 | 1.8 L/kg | 4.67 h | 43% | 3.06 | 15 mL/min/kg | 3.00 | 4.72 | 48 µg/mL (≈ 82.8 µM) |  |  |  |  | 
CCCC[C@H](NC(=O)O[C@H](CN1CCN(c2ccc(C(F)(F)F)cc2)C1=O)C(C)(C)C)C(=O)C(=O)Nc1ccn[nH]1 | 5.77 | 5 L/kg | 5.67 h | 27% | 4.22 | 55 mL/min/kg | 4.43 | 6.27 | 43 µg/mL (≈ 74.1 µM) |  |  |  |  | 
CCCC[C@H](NC(=O)O[C@H](Cc1nnc(-c2ccccc2)o1)C(C)(C)CC)C(=O)C(=O)N[C@H](C)c1ccccc1 | 5.55 |  |  |  | 4.25 |  | 4.77 | 6.14 |  | 8.82 |  |  |  | 
CCCC[C@H](NC(=O)O[C@H](Cc1nnc(-c2ccc(F)cc2)o1)C(C)(C)C)C(=O)C(=O)N[C@H](C)c1ccccc1 | 4.47 |  |  |  | 5.01 |  | 4.48 | 6.28 |  |  |  |  |  | 
CCCC[C@H](NC(=O)O[C@H](Cn1ccc(-c2ccc(C(F)(F)F)cc2)n1)C(C)(C)C)C(=O)C(=O)Nc1ccccn1 | 5.35 | 1.8 L/kg | 3.5 h | 34% | 3.97 | 41 mL/min/kg | 3.62 | 5.43 | 380 µg/mL (≈ 662 µM) | 8.09 |  |  |  | 

The next compounds have a higher pIC50 (Cathepsin L2) than those just listed; values first:

pIC50 (Cathepsin L2) | Vd [1] | half-life [2] | bioavailability [3] | pIC50 (Cathepsin B) | clearance [4] | pIC50 (Procathepsin L) | pIC50 (Cathepsin S) | solubility thermodynamic ([5]; read-out: FS-SIF) | pIC50 (Cathepsin K) | VSS [1] | T1/2 [2] | CL [4] | solubility thermodynamic [5] | SMILES
5.80 |  |  |  | 4.92 |  | 5.00 | 6.12 |  |  |  |  |  |  | CCCC[C@H](NC(=O)O[C@H](Cc1nnc(-c2ccccc2)o1)C(C)(C)C)C(=O)C(=O)N[C@H](C)c1ccccc1
5.89 | 1.4 L/kg | 2.33 h | 17% | 5.21 | 35 mL/min/kg | 4.82 | 6.09 | 620 µg/mL (≈ 1140 µM) | 9.19 |  |  |  |  | CCCC[C@H](NC(=O)OC(Cc1nnc(-c2ccc(F)cc2)o1)C(C)(C)C)C(=O)C(=O)N[C@H]1CCCNC1=O (stereo partly specified)
5.92 | 1.9 L/kg | 8.83 h | 50% | 4.35 | 11 mL/min/kg | 4.16 | 6.28 | 61 µg/mL (≈ 108 µM) |  |  |  |  |  | CCCC[C@H](NC(=O)O[C@H](Cc1nnc(-c2ccc(C(F)(F)F)cc2)o1)C(C)(C)C)C(=O)C(=O)Nc1ccn[nH]1
6.37 | 2.1 L/kg | 5.67 h | 45% | 5.00 | 9.1 mL/min/kg | 4.44 | 7.11 | 97 µg/mL (≈ 172 µM) | 7.49 |  |  |  |  | CCCC[C@H](NC(=O)O[C@H](Cn1cc(-c2ccc(C(F)(F)F)cc2)cn1)C(C)(C)C)C(=O)C(=O)Nc1ccn[nH]1
6.77 |  |  | 9.6% | 4.70 |  | 5.06 | 6.68 | 110 µg/mL (≈ 196 µM) | 7.14 | 0.32 L/kg | 1.52 h | 0.11 mL/min/kg |  | CCCC[C@H](NC(=O)O[C@H](Cn1ccc(-c2ccc(C(F)(F)F)cc2)n1)C(C)(C)C)C(=O)C(=O)Nc1ccn[nH]1
6.89 | 2.4 L/kg | 7.67 h | 55% | 4.57 | 15 mL/min/kg | 5.00 | 6.80 | 130 µg/mL (≈ 231 µM) |  |  |  |  |  | CCCC[C@H](NC(=O)O[C@H](Cn1cnc(-c2ccc(C(F)(F)F)cc2)c1)C(C)(C)C)C(=O)C(=O)Nc1ccn[nH]1
